IC50 data for 29 compounds are collected here from patent publication US11427593B2, “Bromodomain inhibitor compound and use thereof” (SHANGHAI INSTITUTE OF MATERIA MEDICA, CHINESE ACADEMY OF …, priority 2018, dated 2022).

Assay [1] relates to MV4-11 cells. As to the kind of experiment: Cell growth inhibition assay, MV4-11 (CellTiter-Glo, 72 h). The format is cell-based. The following applies: Homo sapiens, MV4-11 acute mononuclear leukemia cells. As for the experimental part:
After seeding the cells in the plate, the cells were placed in a CO2 incubator (37° C., 5% CO2) and incubated for 1 h. […] After adding the compound, the cells were placed in a CO2 incubator (37° C., 5% CO2) for 72 h. CellTiter-Glo reagent (Promega, G7572) was used to determine cell survival. […] The detection result was analyzed and fitted by GraphPad Prism 5.0 software to give IC50 values.

For assay [2], the target named is BRD4_BD1 (49-170) protein (Homo sapiens (Human), UniProt O60885). As to the kind of experiment: AlphaScreen assay: inhibition of binding of BRD4 bromodomain BD1 to acetylated histone H4 polypeptide. The following applies: BRD4 BD1 vs acetylated H4 polypeptide, read-out: ALPHA IC50. The text has this:
AlphaScreen kit (Perkin Elmer) was used to detect effect of the compounds on binding of BRD4 bromodomain to acetylated histone H4 polypeptide. […] Each of fusion proteins containing (His)6tag can be recognized and bound by Ni^2+. […] The donor microbeads were coated with streptavidin and can bind to biotinylated acetylated H4 polypeptide. The acceptor microbeads were coated with Ni^2+ ions and can bind to the BD1 protein with (His)6tag. When the BD1 protein recognized the acetylated H4 polypeptide, the donor microbeads and the acceptor microbeads can be brought closer to a certain distance. Within this range, the donor microbeads can produce singlet oxygen after being irradiated with a 680 nm excitation light, and transfer the singlet oxygen to the acceptor microbeads. After a series of cascade chemical reactions, the acceptor microbeads will generate an emission wave of 520-620 nm, which in turn can be detected a signal. In this experiment, the test system was 20 μL, and the compound needs to be diluted in buffer 1 (20 mM HEPES pH 7.4, 150 mM NaCl, 1 mM dithiothreitol). First, a solution of 20 mM compound was consecutively diluted twice, each in 10 times, totally in 100 times to a concentration of 200 μM. […] The recombinant BD1 protein solution and the acetylated histone H4 polypeptide were diluted in the buffer 2 (20 mM HEPES pH 7.4, 150 mM NaCl, 0.01% Triton X-100, 0.1% bovine serum protein (w/v, Sigma), 1 mM dithiothreitol) to 100 nM and 100 nM respectively, to obtain a 8×BD1 protein working solution and a 4× acetylated histone H4 polypeptide working solution. The donor microbeads and the acceptor microbeads are diluted together in the buffer 2, both in the ratio of 1:100, to obtain a 2× microbead mixed working solution. The plate was added with 2.5 μL of BD1 protein working solution and incubated with the compound for 20 min at room temperature, and then added with 5 μL of acetylated histone H4 polypeptide working solution and incubated at room temperature for 5 min, and finally added with 10 μL of microbead mixed working solution and incubated at room temperature for 60 min. […] IC50 values of the compounds at different concentrations for inhibiting the binding of BD1 protein to acetylated H4 polypeptide were calculated by fitting using GraphPad Prism 5.0 software.
A general note: Alpha assays give light when donor and acceptor beads are brought close together.

Assay [3] concerns MM.1S cells. Description: MM.1S cell growth inhibition assay (CellTiter Glo, 96 h). The format is cell-based. The following applies: MM.1S multiple myeloma cells. As for the experimental part: The cell suspension was pipetted into a 15 mL centrifuge tube, and centrifuged at 800 rpm for 3 minutes. The supernatant was discarded. 2 mL of culture medium was added to the centrifuge tube, and the cells were resuspended evenly by gentle pipetting. The cell density was measure by a hemacytometer. Then the cell suspension was diluted to 50,000 cells/mL. The diluted cell suspension was added to a 96-well cell culture plate (Corning, 3599) in 100 μl/well (in column 1, there was 0.5% DMSO-containing medium in each well, and MM.1S cells were seeded in the remaining 88 wells). The plate was placed in a CO2 incubator overnight.
The compound to be tested was prepared into 10 mM solution in DMSO, and then the compound was prepared into a 2 mM solution in DMSO, which was added to the compound plate, and then it was diluted with DMSO in a 4-fold gradient dilution to be 7 points. 0.5 μL of the compound in the plate of the compound to be tested was pipetted into the cell culture plate (the compound was added to rows A to G, and 0.5 μL of DMSO was added to row H as a control). The final concentrations of the compound were 10000 nM, 2500 nM, 625 nM, 156.25 nM, 39.06 nM, 9.77 nM, 2.44 nM. The plate was returned to the CO2 incubator and incubated for 96 h. Then cell survival was detected by using CellTiter Glo reagent (Promega, Cat. No. G7573, Lot. No. 0000310975). The cell culture plate was taken out and equilibrated to room temperature. 100 μL of CellTiter Glo reagent was added to each well. The plate was shaken for 10 min in the dark, and incubated for 10 min. Then the culture plate was put into a multi-functional microplate reader EnSpire (PerkinElmer) for reading, and detected at 400-700 nm. The reading data were recorded. […] XLFit was used to plot the dose-response inhibition curve (four-parameter model [fit=(A+((B−A)/(1+((C/x)^D))))] and calculate the IC50 values.
(In general: Cellular ATP, detected with luciferase, serves as a proxy for viable cell number.)

One may read the IC50 as the concentration needed to halve the response being measured. As for `Cc1cc(-c2cc(NS(C)(=O)=O)ccc2Oc2cccnc2)n2cc[nH]c(=O)c12` [ZB-BD-94], the IC50 in assay [1] came to 91 nM; in assay [2], 14 nM.

In turn, `CCS(=O)(=O)Cc1cnc(Oc2ccc(F)cc2F)c(-c2cc(C)c3c(=O)[nH]ccn23)c1` [ZB-BD-216] showed an IC50 in assay [3] (Homo sapiens, MM1.S) of 14.2 nM.

Take `Cc1cc(-c2cc(NS(C)(=O)=O)ccc2Oc2ccc(F)cc2F)n2cn[nH]c(=O)c12` [ZB-BD-103]: the IC50 in assay [1] was less than 100 nM.

With `CCS(=O)(=O)Nc1ccc(Oc2ccc(F)cc2F)c(-c2cc(C)c3c(=O)[nH]ccn23)c1` [ZB-BD-78], the IC50 worked out at 52.1 nM in assay [3] (Homo sapiens, MM1.S) and 20.4 nM in assay [1].

In turn, `CCS(=O)(=O)Cc1ccc(Oc2c(C)cccc2C)c(-c2cc(C)c3c(=O)[nH]ccn23)c1` [ZB-BD-237] registered an IC50 in assay [1] of 21.6 nM.

For the compound `Cc1cc(-c2cc(NS(C)(=O)=O)ccc2Oc2ccccc2)n2cn[nH]c(=O)c12` [ZB-BD-102], the IC50 in assay [1] is less than 100 nM.

In turn, `Cc1cc(-c2cc(CS(C)(=O)=O)cnc2Oc2ccc(F)cc2F)n2cc[nH]c(=O)c12` [ZB-BD-147] had an IC50 in assay [3] (Homo sapiens, MM1.S) of 73.5 nM.

In assay [1], `CCS(=O)(=O)c1ccc(Oc2c(C)cccc2C)c(-c2cc(C)c3c(=O)[nH]ccn23)c1` [ZB-BD-239] returned an IC50 of 90.6 nM.

Compound `Cc1cc(-c2cc(NS(C)(=O)=O)ccc2Oc2ccccc2)n2cc[nH]c(=O)c12` [ZB-BD-70] displayed an IC50 in assay [1] of 33.1 nM.

For `Cc1cc(-c2cc(CS(C)(=O)=O)cnc2OC2CCCCC2)n2cc[nH]c(=O)c12` [ZB-BD-202], in assay [3] (Homo sapiens, MM1.S), 25.7 nM corresponded to half-maximal inhibition (IC50).

In assay [1], `Cc1ccccc1Oc1ccc(NS(C)(=O)=O)cc1-c1cc(C)c2c(=O)[nH]ccn12` [ZB-BD-232] displayed an IC50 of 25.4 nM.

Take `CCS(=O)(=O)Cc1cnc(Oc2ccc(F)cc2F)c(-c2cc(C)c3c(=O)[nH]ncn23)c1` [ZB-BD-241]: the IC50 in assay [1] worked out at 7.9 nM; in assay [2] it was 14.3 nM.

Compound `Cc1cc(-c2cc(NS(C)(=O)=O)ccc2Oc2ccccc2)n2c1C(=O)NCC2` [ZB-BD-74] displayed an IC50 in assay [1] of 31.2 nM.

`Cc1cc(-c2cc(NS(C)(=O)=O)ccc2OC2CCOCC2)n2cc[nH]c(=O)c12` [ZB-BD-96] registered an IC50 in assay [1] of less than 100 nM.

In turn, `Cc1cccc(C)c1Oc1ccc(NS(C)(=O)=O)cc1-c1cc(C)c2c(=O)[nH]ccn12` [ZB-BD-236] gave an IC50 in assay [1] of 48.5 nM.

The compound `Cc1cc(-c2cc(CS(C)(=O)=O)ccc2Nc2ccc(F)cc2)n2cc[nH]c(=O)c12` [ZB-BD-90] had an IC50 in assay [1] of 76.6 nM.

In the case of `Cc1cc(-c2cc(CS(C)(=O)=O)ccc2Nc2ccccc2)n2cc[nH]c(=O)c12` [ZB-BD-87], half-maximal inhibition in assay [1] (IC50) required 78.7 nM.

For `Cc1cc(-c2cc(S(C)(=O)=O)ccc2Nc2ccccc2)n2cc[nH]c(=O)c12` [ZB-BD-130], the IC50 in assay [2] was 326 nM.

Turning to `Cc1cc(-c2cc(NS(C)(=O)=O)ccc2OC2CCCCC2)n2cc[nH]c(=O)c12` [ZB-BD-92], the IC50 in assay [3] (Homo sapiens, MM1.S) came to 39.2 nM.

`Cc1sc2c(c1C)C(c1ccc(Cl)cc1)=N[C@@H](CC(=O)OC(C)(C)C)c1nnc(C)n1-2` [JQ1, reference compound] yielded an IC50 in assay [3] of 181 nM.

As for `CCS(=O)(=O)Nc1ccc(Oc2ccccc2)c(-c2cc(C)c3c(=O)[nH]ccn23)c1` [ZB-BD-77], inhibition in assay [1] was half-maximal at 13.4 nM (IC50).

The compound `Cc1cc(-c2cc(NS(C)(=O)=O)ccc2OCC2CC2)n2cc[nH]c(=O)c12` [ZB-BD-83] returned a half-maximal inhibitory concentration (IC50) in assay [1] of 131 nM.

As for `Cc1cc(-c2cc(NS(C)(=O)=O)ccc2Oc2ccc(F)cc2F)n2cc[nH]c(=O)c12` [ZB-BD-80], the IC50 in assay [1] was 29.2 nM.

As for `Cc1cc(-c2cc(NS(C)(=O)=O)ccc2Oc2cccnc2)n2cn[nH]c(=O)c12` [ZB-BD-120], the figures for the IC50 in assay [1] and in assay [2] were 113 nM and 36.6 nM, respectively.

As for `CCS(=O)(=O)c1ccc(Oc2ccccc2C)c(-c2cc(C)c3c(=O)[nH]ccn23)c1` [ZB-BD-240], 5.3 nM corresponded to half-maximal inhibition in assay [1] (IC50).

In the case of `CCS(=O)(=O)Cc1ccc(Oc2ccc(F)cc2F)c(-c2cc(C)c3c(=O)[nH]ccn23)c1` [ZB-BD-116], the IC50 in assay [3] (Homo sapiens, MM1.S) came to 70.3 nM; in assay [2], 8.8 nM.

`Cc1cc(-c2cc(CS(C)(=O)=O)ccc2Oc2ccc(F)cc2F)n2cc[nH]c(=O)c12` [ZB-BD-112] yielded an IC50 in assay [3] (Homo sapiens, MM1.S) of 64.3 nM.

`Cc1cc(-c2cc(CS(C)(=O)=O)ccc2OC2CCCCC2)n2cc[nH]c(=O)c12` [ZB-BD-187] showed an IC50 in assay [3] (Homo sapiens, MM1.S) of 22.8 nM.

With `Cc1cc(-c2cc(NS(C)(=O)=O)cnc2OC2CCCCC2)n2cc[nH]c(=O)c12` [ZB-BD-179], the IC50 in assay [3] (Homo sapiens, MM1.S) came to 53.2 nM.
